Measurements as given in BindingDB's records for doi:10.1021/jm00090a003 (Universit&#233, 1992).
Several values for one entry are separate records, joined by “and”; a condition that tells them apart may be missing. Equal values may be shown once.

Assays:
[1] = target: Calcitonin gene-related peptide (CGRP) receptor binding sites; test: ChEBML_42602
[2] = target: Calcitonin gene-related peptide type 1 receptor (Cavia porcellus); test: Binding affinity against [125I]-hCalcitonin gene-related peptide type receptor binding sites in guinea pig atrium membrane

## CC(C)C[C@H](NC(=O)CNC(=O)[C@H](C)NC(=O)[C@H](CC(C)C)NC(=O)[C@H](CCCN=C(N)N)NC(=O)[C@@H](N)Cc1c[nH]cn1)C(=O)N[C@@H](CC(C)C)C(=O)N[C@@H](CO)C(=O)N[C@@H](CCCN=C(N)N)C(=O)N[C@@H](CO)C(=O)NCC(=O)NCC(=O)N[C@H](C(=O)N[C@H](C(=O)N[C@@H](CCCCN)C(=O)N[C@@H](CC(N)=O)C(=O)N[C@@H](CC(N)=O)C(=O)N[C@@H](Cc1ccccc1)C(=O)N[C@H](C(=O)N1CCC[C@H]1C(=O)N[C@H](C(=O)N[C@@H](CC(N)=O)C(=O)N[C@H](C(=O)NCC(=O)N[C@@H](CO)C(=O)N[C@@H](CCCCN)C(=O)N[C@@H](C)C(=O)N[C@@H](Cc1ccccc1)C(N)=O)C(C)C)[C@@H](C)O)C(C)C)C(C)C)C(C)C
[1]
  IC50: 9 nM

## H-VTHALAGLLSRSGGVVKNNFVPTNVGSKAF-NH2
[2]
  IC50: 22 nM and 25 nM

## H-VTHRAAGLLSRSGGVVKNNFVPTNVGSKAF-NH2
[2]
  IC50: 11 nM
[1]
  IC50: 14.5 nM
